Data from US7683061B2, “Triazine dimers for the treatment of autoimmune diseases” (ProMetic BioSciences Inc., priority 2003, dated 2010).

What was measured:
[1] = test system: female Lewis rats, adjuvant-induced arthritis; test: Freund's adjuvant-induced arthritis (AIA); format: in vivo
Source text: AIA was induced in female Lewis rats by the injection of lyophilized Mycobacterium butyricum suspended in mineral oil into the footpad. The development of aridity was monitored over a 3 weeks period post-adjuvant injection, inflammation peaks at day 3 following the adjuvant administration. Immune activation appears around day 14. Compounds were orally or intravenously administered at different doses at day −3, −2 and −1 pre-adjuvant injection and at different regimen as specified in the exponent starting from day 10 through 21 post-adjuvant injection or animals were treated with oral admiration of compound 19a from day −3 to day 21. Body weight was recorded. The arthritis index, which is a measure of inflammation (oedema), redness and stiffness of the articulations, was used to monitor the development of the disease. The degree of arthritis was determined by measuring two perpendicular diameters of the ankles in the mediolateral and dorsoventral planes using a caliper. Joint circumference in millimeters is then calculated using a geometric formula. Both the incidence and severity of the arthritis was evaluated. Incidence is defined as the number of rats with clinical evidence of joint inflammation during the study period.

[2] = test system: female Lewis rats, collagen-induced arthritis; test: Collagen-induced arthritis (CIA); format: in vivo; details: intravenous; by day 14 and beyond
Method: Collagen-induced arthritis (CIA) was induced in female Lewis rats by intradermal administration of heterologous (bovine) type II collagen (250 μg) solubilized in 0.1 M acetic acid and emulsified in Complete Freund's Adjuvant (CFA). Rats were treated with the vehicle or methotrexate or compound 1 by intravenous injections at day 8, 9, 12, 14 and 16. Synovitis typically develops 12-15 days postimmunization in 80-90% of the animals. Once arthritis appears, each paw was examined two to three times a week. Both the incidence and severity of the arthritis was evaluated. Incidence is defined as the number of rats with clinical evidence of joint inflammation during the study period while severity was quantified by scoring daily each paw integer on a scale of 0 to 4 (0=normal, 4=maximum; Table 7) based on increasing levels of swelling, periarticular erythema and stiffness. The sum of the scores for all four paws was calculated as the arthritic index with a maximum possible score of 16 per rat. Since CIA primarily affects hind limbs, scores of 6-8 represent severe arthritis.

SMILES: CN(Cc1cnc2nc(N)nc(N)c2n1)c1ccc(C(=O)N[C@@H](CCC(=O)O)C(=O)O)cc1 [methotrexate, reference compound]
- inhibition of chronic inflammation (days 12 to 21) ([1]; days 15 to 21): strong and significant inhibition of inflammation
- reduction in the severity of arthritis (inflammatory index) ([1]; intravenous, by day 19 and over, FIG. 10): 50%
- reduction in the severity of arthritis (arthritic index) [2]: 50%
